Data published in patent publication US10035814B2, “Guanine analogs as telomerase substrates and telomere length affectors” (Geron Corporation, priority 2011, dated 2018).

Target: telomerase (Homo sapiens (Human), UniProt O14746)
Experiment: Primer extension assay for telomerase activity
Format: biochemical
Conditions: for EC50: read-out: Primer Ext. Assay EC50
Procedure: Purified human telomerase was incubated with d(TTAGGG)3 (SEQ ID NO: 1) and deoxy-nucleoside triphosphates for 90 minutes at 37° C. All reactions were done in the presence of 200 dTTP and 10 μM dATP (50,000 cpm/pmol a-^33P-dATP). Activity was determined by incubating affinity purified telomerase extract with 1 μM primer [d(TTAGGG)3] (SEQ ID NO: 1), 200 μM dTTP, 50 μM dGTP, 10 μM dATP, 10 μCi [α-^33P]dATP (2000-4000 Ci/mmol) in a buffer containing 50 mM (N-2-hydroxyethyl piperazine-N′-3 propanesulfonic acid)-NaOH pH 8.5, 1 mM MgCl2, 1 mM DTT, 5% glycerol, 0.5 mM EGTA and 100 mM KOAc in a final reaction volume of 40 μl. Primer extension products were analyzed on a 15% polyacrylamide gel containing 7 M urea. A characteristic telomerase ladder has multiple bands. If a compound is not a substrate then (TTAGGG)3TTA (21 nt) (SEQ ID NO: 2). If a compound is a chain terminator then (TTAGGG)3TTAG* (22 nt) (SEQ ID NO: 3).
Purified human telomerase was incubated with d(TTAGGG)3 (SEQ ID NO: 1) and deoxy-nucleoside triphosphates for 90 minutes at 37° C. All reactions were done in the presence of 200 dTTP and 10 μM dATP (50,000 cpm/pmol a-^33P-dATP). Activity was determined by incubating affinity purified telomerase extract with […] primer [d(TTAGGG)3] (SEQ ID NO: 1), […] [α-^33P]dATP (2000-4000 Ci/mmol) in a buffer containing 50 mM (N-2-hydroxyethyl piperazine-N′-3 propanesulfonic acid)-NaOH pH 8.5, 1 mM MgCl2, 1 mM DTT, 5% glycerol, 0.5 mM EGTA and 100 mM KOAc in a final reaction volume of 40 μl. Primer extension products were analyzed on a 15% polyacrylamide gel containing 7 M urea. A characteristic telomerase ladder has multiple bands. If a compound is not a substrate then (TTAGGG)3TTA (21 nt) (SEQ ID NO: 2). If a compound is a chain terminator then (TTAGGG)3TTAG* (22 nt) (SEQ ID NO: 3).

Sequence of telomerase (O14746 whole entry): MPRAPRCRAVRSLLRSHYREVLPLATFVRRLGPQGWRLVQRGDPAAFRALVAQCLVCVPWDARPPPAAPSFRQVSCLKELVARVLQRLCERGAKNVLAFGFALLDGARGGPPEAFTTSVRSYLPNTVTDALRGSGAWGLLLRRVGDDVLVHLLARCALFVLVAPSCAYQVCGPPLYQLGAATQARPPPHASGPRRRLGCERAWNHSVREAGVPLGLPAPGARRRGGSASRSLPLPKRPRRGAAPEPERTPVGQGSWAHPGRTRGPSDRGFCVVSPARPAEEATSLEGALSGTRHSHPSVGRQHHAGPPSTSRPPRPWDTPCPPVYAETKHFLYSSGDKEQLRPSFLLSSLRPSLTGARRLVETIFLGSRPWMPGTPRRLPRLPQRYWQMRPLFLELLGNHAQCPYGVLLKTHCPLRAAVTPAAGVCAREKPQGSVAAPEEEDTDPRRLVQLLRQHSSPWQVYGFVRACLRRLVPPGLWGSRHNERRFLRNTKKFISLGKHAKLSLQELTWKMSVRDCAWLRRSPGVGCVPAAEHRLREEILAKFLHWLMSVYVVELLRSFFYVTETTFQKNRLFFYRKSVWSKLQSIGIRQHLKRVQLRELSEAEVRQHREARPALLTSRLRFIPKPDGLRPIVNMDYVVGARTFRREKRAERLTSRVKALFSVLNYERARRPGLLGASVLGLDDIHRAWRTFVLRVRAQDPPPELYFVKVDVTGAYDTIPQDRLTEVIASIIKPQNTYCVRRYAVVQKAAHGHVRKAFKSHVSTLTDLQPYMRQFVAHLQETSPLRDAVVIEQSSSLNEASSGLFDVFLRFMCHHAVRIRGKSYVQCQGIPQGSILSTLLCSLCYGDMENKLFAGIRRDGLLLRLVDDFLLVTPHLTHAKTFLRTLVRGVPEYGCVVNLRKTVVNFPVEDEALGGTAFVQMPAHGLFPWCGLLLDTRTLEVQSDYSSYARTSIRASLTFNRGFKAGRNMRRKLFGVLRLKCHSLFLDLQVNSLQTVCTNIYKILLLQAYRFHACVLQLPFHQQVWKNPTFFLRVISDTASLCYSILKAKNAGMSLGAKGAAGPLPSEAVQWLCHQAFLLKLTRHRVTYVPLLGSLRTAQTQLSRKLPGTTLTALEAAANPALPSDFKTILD

Row | Structure (SMILES) | Primer Ext. Assay Notes: telomerase substrate / chain terminator | EC50 | potency relative to PMPG (R-PMPGpp), times less potent
1 | C=C(COCP(=O)(O)OP(=O)(O)OP(=O)(O)O)Cn1cnc2c(=O)[nH]c(N)nc21 [Compound 142810] | Chain Terminator. | 1.4 µM | 
2 | CC(Cn1cnc2c(=O)[nH]c(N)nc21)OCP(=O)(O)OP(=O)(O)OP(=O)(O)O (single isomer, unassigned) [Compound 142692] | Chain terminator. | 0.5 to 1.2 µM | 
3 | CC(Cn1cnc2c(=S)[nH]c(N)nc21)OCP(=O)(O)OP(=O)(O)OP(=O)(O)O (stereo not drawn) [Compound 142761] | Chain terminator | 13.5 µM | 
4 | C[C@H](Cn1cnc2c(=O)[nH]c(N)nc21)SCP(=O)(O)OP(=O)(O)OP(=O)(O)O [Compound 142823] | Weak chain terminator. |  | 
5 | C=C(COCP(=O)(O)OP(=O)(O)OP(=O)(O)O)Cn1cnc2c(=O)[nH]c(N)nc21 [ID#142810, PMIBeG, free acid] |  |  | approximately two times less potent than R-PMPGpp
6 | CC(Cn1cnc2c(=O)[nH]c(N)nc21)OCP(=O)(O)OP(=O)(O)OP(=O)(O)O (stereo not drawn) [Compound 142751] | Weak chain terminator. |  | 
7 | CC(Cn1cnc2c(=S)[nH]c(N)nc21)OCP(=O)(O)OP(=O)(O)OP(=O)(O)O (stereo not drawn) [Compound 142752] | Weak chain terminator. |  | 

Continued, in another order:

Row | Primer Ext. Assay Notes: telomerase substrate / chain terminator | EC50 | Structure (SMILES) | potency relative to PMPG (R-PMPGpp), times less potent
8 | Chain terminator | 1.5 µM | Nc1nc2c(ncn2CCCOCP(=O)(O)OP(=O)(O)OP(=O)(O)O)c(=O)[nH]1 [Compound 142848] | ~2
9 | Chain terminator. | 4.4 µM | CC(COCP(=O)(O)OP(=O)(O)OP(=O)(O)O)Cn1cnc2c(=O)[nH]c(N)nc21 (stereo not drawn) [Compound 142846] | 
10 | Chain terminator. | 3.1 µM | CC(COCP(=O)(O)OP(=O)(O)OP(=O)(O)O)n1cnc2c(=O)[nH]c(N)nc21 (stereo not drawn) [Compound 142879] | 
11 |  | 10 µM | CC[C@H](Cn1cnc2c(=O)[nH]c(N)nc21)OCP(=O)(O)OP(=O)(O)OP(=O)(O)O [Compound 142916] | 
12 | Weak chain terminator. |  | Nc1nc2c(ncn2CC(OCP(=O)(O)OP(=O)(O)OP(=O)(O)O)C(F)(F)F)c(=O)[nH]1 (stereo not drawn) [Compound 142850] | 
13 | Weak chain terminator. |  | C[C@@H](COCP(=O)(O)OP(=O)(O)OP(=O)(O)O)Cn1cnc2c(=O)[nH]c(N)nc21 (stereo in doubt) [Compound 142860] | 
14 | Weak chain terminator. |  | CC(C)(Cn1cnc2c(=O)[nH]c(N)nc21)OCP(=O)(O)OP(=O)(O)OP(=O)(O)O [Compound 142891] | 
15 |  | > 60 µM | C[C@H](CCn1cnc2c(=O)[nH]c(N)nc21)OCP(=O)(O)OP(=O)(O)OP(=O)(O)O [Compound 142915] | 
16 | Chain terminator. | 7.5 µM | Nc1nc2c(ncn2CC(CF)OCP(=O)(O)OP(=O)(O)OP(=O)(O)O)c(=O)[nH]1 (stereo not drawn) [Compound 142856] | 
